Assay results reported in patent US11066401B2, “Pyrimidine compound, chloride salt thereof, and manufacturing and application of same” (SHENZHEN HAIBIN PHARMACEUTICAL CO., LTD, priority 2016, dated 2021).
Where a name gives a salt, the structure may show the parent alone. Read-outs that look alike come from different tables or passages of the source.

Key:
[1] = Test for hygroscopicity (Chinese Pharmacopeia 2010, Appendix XIX J); assay type: physicochemical
Description: The experiment was carried out according to Guiding Principles of Drug Hygroscopicity Test, Appendix XIX J, Second Part, Chinese Pharmacopeia (2010), the weight increased by hygroscopy of samples (compound shown in Formula (I) and salts thereof prepared in EXAMPLES 1-17) was calculated respectively, the results were shown in Table 4.

[2] = Test for stability: related substances under high temperature and illumination (HPLC); assay type: physicochemical; settings: for Related substances Day 10 under high temperature / Related substances Day 10 under illumination condition / Related substances Day 0: acetonitrile-water (1:1) solution; for Related substances Day 10 under high temperature: 60° C., in % (unit assumed); for Related substances Day 10 under high temperature / Related substances Day 10 under illumination condition: 10 days, area normalization; for Related substances Day 10 under illumination condition: 4500 lx±500 lx; for Related substances Day 0: day 0, area normalization
Description: The experiment was carried out according to Guiding Principles of Active Pharmaceutical Ingredient and Pharmaceutical Formulation Stability Test, Appendix XIX C, Second Part, Chinese Pharmacopeia (2010), the increase of related substance of the solution of compounds shown in formula (I) and salts thereof (EXAMPLES 1-17) under high temperature condition (60° C.) and illumination (the light intensity was 4500 lx±500 lx) was detected to evaluate the stability.
Wherein, the method for detecting related substance was shown as following:
HPLC: Waters 2695 UV Detector
Chromatographic Column: Diamonsil C18 (2) 5 μm, 150×4.6 mm
Detection wavelength: 322 nm
Column temperature: 30° C.
Mobile phase B: buffer (900 ml water+10 ml triethylamine+5 ml phosphoric acid, being diluted to 1000 ml with water)
The testing samples were prepared by using acetonitrile-water (1:1) solution with a concentration of 10-100 μg/ml, kept under high temperature (60° C.) and illumination (the light intensity was 4500 lx±500 lx) respectively for 10 days, the mass of related substance was determined on day 0 and day 10 (calculated by using area normalization), the results were shown in Table 6.

[3] = Pharmacokinetic test, absolute bioavailability in rats; assay type: in vivo; settings: male SD rats, i.g. 40 mg/kg vs i.v. 20 mg/kg
Description: 48 male SD rats with a body weight of 200-220 g were randomly divided into 8 groups with 6 mice each group, administered the compound shown in Formula (I), the hydrochloride salt, mesylate and acetate thereof intragastrically (i.g.) and intravenously (i.v.) respectively, and the protocol was shown in Table 7:
Intragastric administration: 2% of HPMC
Intravenous administration: a solution prepared with 20% PEG
The rats were fasted for 12 hours with free access to water prior to experiment; and fed together 2 hours after administration.
Blood sampling time points: 5 min (only administering intravenously), 0.25 h, 0.5 h, 1.0 h, 2.0 h, 4.0 h, 6.0 h, 8.0 h and 24 h after administration;
Sample treatment: 0.3 ml venous blood was obtained from rats' posterior ocular vein plexus at the above-mentioned time points, put into a heparinized tube, centrifuged for 5 minutes at 11000 rpm to separate plasma, then frozen in a refrigerator at −20° C.
The concentration of parent drugs in rat's plasma was detected by utilizing LC/MS/MS.
Wherein, F: absolute bioavailability; AUC: area under the curve; D: Dosage

PIM1 = PIM1 (Homo sapiens, UniProt P11309); assay: Assay of PIM kinase activity, PIM1; assay type: biochemical; settings: 6 concentrations, initial concentration 30 nM; read-out: IC50 PIM 1
Chain of PIM1 (P11309 whole entry): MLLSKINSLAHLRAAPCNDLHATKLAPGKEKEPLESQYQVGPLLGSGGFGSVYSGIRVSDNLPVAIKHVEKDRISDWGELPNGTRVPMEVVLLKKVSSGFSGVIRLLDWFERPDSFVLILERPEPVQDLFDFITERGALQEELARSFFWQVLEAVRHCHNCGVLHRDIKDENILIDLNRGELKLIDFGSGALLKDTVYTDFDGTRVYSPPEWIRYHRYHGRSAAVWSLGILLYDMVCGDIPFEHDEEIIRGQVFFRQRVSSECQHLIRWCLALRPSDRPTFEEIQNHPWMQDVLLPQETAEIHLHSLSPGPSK
Description: (§1) Dose-dependent experiments on PIM1, PIM2 and PIM3 were commissioned to Shanghai Runnuo Biotechnology, 6 concentration gradients were set, the initial concentration was 30 nM, 200 nM and 30 nM, then diluted successively, the inhibitive effects of compounds on PIM kinase was tested, the results were shown in Table 9.

PIM2 = PIM2 (Homo sapiens, UniProt Q9P1W9); assay: Assay of PIM kinase activity, PIM2; assay type: biochemical; settings: 6 concentrations, initial concentration 200 nM; read-out: IC50 PIM 2
Chain of PIM2 (Q9P1W9 whole entry): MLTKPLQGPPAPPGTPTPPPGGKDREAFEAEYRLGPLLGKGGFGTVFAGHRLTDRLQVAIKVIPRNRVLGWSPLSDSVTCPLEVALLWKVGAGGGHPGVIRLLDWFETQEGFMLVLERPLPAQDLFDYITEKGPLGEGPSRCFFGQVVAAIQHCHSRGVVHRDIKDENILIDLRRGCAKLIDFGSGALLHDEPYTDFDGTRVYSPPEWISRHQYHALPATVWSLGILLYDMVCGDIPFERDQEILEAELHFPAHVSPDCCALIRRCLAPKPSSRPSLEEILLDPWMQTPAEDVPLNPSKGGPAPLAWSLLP
Description: as §1

PIM3 = PIM3 (Homo sapiens, UniProt Q86V86); assay: Assay of PIM kinase activity, PIM3; assay type: biochemical; settings: 6 concentrations, initial concentration 30 nM; read-out: IC50 PIM 3
Description: as §1

[4] = Test of solubility in water (HPLC)
Description: Wherein, the chromatographic condition was shown as follows:
Chromatographic Column: C18
Column temperature: 25° C.
Mobile phase A: 0.1% TFA-water
Mobile phase B: 0.1% TFA-CAN

Compound | melting point [°C] | Weight increased by hygroscopy [1] [%] | Related substances Day 10 under high temperature [2] | Related substances Day 10 under illumination condition [2] [%] | Related substances Day 0 [2] [%] | Absolute Bioavailability [3] [%] | IC50 (PIM1) [nM] | IC50 (PIM2) [nM] | IC50 (PIM3) [nM] | Weight increased by hygroscopy ([1]; listed as hydrochloride salt) [%] | increase of the amount of related substance ([2]; after 10 days, heat, light) [%] | solubility in water [4]
Nc1sc(-c2c(F)cccc2F)nc1C(=O)Nc1cncnc1OCC1CCNCC1 (as salt: hydrochloride) [EXAMPLE 2] | 236.1 to 239.4 | – | – | – | – | – | – | – | – | – | – | –
Nc1sc(-c2c(F)cccc2F)nc1C(=O)Nc1cncnc1OCC1CCNCC1 [EXAMPLE 1, 5-amino-2-(2,6-difluorophenyl)-N-(4-(piperidine-4-methoxy)pyrimidine-5-) thiazole-4-formamide] | – | 3.35 | 5.02 | 3.02 | 0.45 | 2.2 | 10 | 8.09 | 23 | – | – | –
Nc1sc(-c2c(F)cccc2F)nc1C(=O)Nc1cncnc1OCC1CCNCC1 [EXAMPLE 2] | – | 0.52 | 0.68 | 0.56 | 0.49 | 32.2 | 2.31 | 1.54 | 4.36 | 0.52 | ≤ 0.19 | about 1 mg/mL
Br.Nc1sc(-c2c(F)cccc2F)nc1C(=O)Nc1cncnc1OCC1CCNCC1 [EXAMPLE 3] | – | 4.32 | 3.45 | 1.67 | 0.52 | – | – | – | – | – | – | –
Nc1sc(-c2c(F)cccc2F)nc1C(=O)Nc1cncnc1OCC1CCNCC1.O=C(O)/C=C\C(=O)O [EXAMPLE 4] | – | 5.45 | 4.54 | 2.22 | 0.46 | – | – | – | – | – | – | –
Nc1sc(-c2c(F)cccc2F)nc1C(=O)Nc1cncnc1OCC1CCNCC1.O=C(O)CCC(=O)O [EXAMPLE 6, Succinate] | – | 7.56 | 8.82 | 4.56 | 0.55 | – | – | – | – | – | – | –
Nc1sc(-c2c(F)cccc2F)nc1C(=O)Nc1cncnc1OCC1CCNCC1.O=S(=O)(O)O [EXAMPLE 7] | – | 3.56 | 4.67 | 2.45 | 0.52 | – | – | – | – | – | – | –
Nc1sc(-c2c(F)cccc2F)nc1C(=O)Nc1cncnc1OCC1CCNCC1.O=C(O)CC(O)(CC(=O)O)C(=O)O [EXAMPLE 8] | – | 5.67 | 7.34 | 5.52 | 0.52 | – | – | – | – | – | – | –
Nc1sc(-c2c(F)cccc2F)nc1C(=O)Nc1cncnc1OCC1CCNCC1.O=C(O)c1ccccc1 [EXAMPLE 9] | – | 7.53 | 5.56 | 4.44 | 0.56 | – | – | – | – | – | – | –
CS(=O)(=O)O.Nc1sc(-c2c(F)cccc2F)nc1C(=O)Nc1cncnc1OCC1CCNCC1 [EXAMPLE 10] | – | 8.21 | 35.6 | 23 | 0.54 | 7.32 | – | – | – | – | – | –
CC(O)C(=O)O.Nc1sc(-c2c(F)cccc2F)nc1C(=O)Nc1cncnc1OCC1CCNCC1 [EXAMPLE 11] | – | 3.67 | 10.78 | 5.67 | 0.54 | – | – | – | – | – | – | –
CC(=O)O.Nc1sc(-c2c(F)cccc2F)nc1C(=O)Nc1cncnc1OCC1CCNCC1 [EXAMPLE 12] | – | 9.21 | 3.56 | 2.65 | 0.62 | 5.34 | – | – | – | – | – | –
Cc1ccc(S(=O)(=O)O)cc1.Nc1sc(-c2c(F)cccc2F)nc1C(=O)Nc1cncnc1OCC1CCNCC1 [EXAMPLE 13] | – | 5.78 | 8.94 | 5.67 | 0.65 | – | – | – | – | – | – | –
Nc1sc(-c2c(F)cccc2F)nc1C(=O)Nc1cncnc1OCC1CCNCC1.O=C(O)/C=C/C(=O)O [EXAMPLE 15] | – | 4.77 | 9.12 | 6.54 | 0.56 | – | – | – | – | – | – | –
Ascorbate [EXAMPLE 17] | – | 5.67 | 18.98 | 6.66 | 0.56 | – | – | – | – | – | – | –
Palmitate [EXAMPLE 14] | – | 6.43 | 6.89 | 3.67 | 0.66 | – | – | – | – | – | – | –
Tartrate [EXAMPLE 16] | – | 7.88 | 6.89 | 3.33 | 0.63 | – | – | – | – | – | – | –
